Data reported in the NIST ThermoML archive (doi:10.1016/j.jct.2017.06.014).
± gives the expanded uncertainty stated by the source.

Settings: Liquid, Ebulliometric method (Recirculating still)

| vapor or sublimation pressure (373.15 K) [kPa] | vapor or sublimation pressure (370.35 K) [kPa] | Compound |
| --- | --- | --- |
| 101.3 ± 1.1 |  | O [water] |
|  | 101.3 ± 1.1 | CCCO [propan-1-ol] |
